Data: ChEMBL document CHEMBL1255447, “Efflux pumps, OprD porin, AmpC beta-lactamase, and multiresistance in Pseudomonas aeruginosa isolates from cystic fibrosis patients” (2010)
Values after ≈ are worked out from the molar mass of the structure shown.

Experiments:
[1] = system: Pseudomonas aeruginosa; assay: Antimicrobial activity against Pseudomonas aeruginosa isolate 1530c from fibrosis patient by Etest; type: functional
[2] = system: Pseudomonas aeruginosa; assay: Antimicrobial activity against Pseudomonas aeruginosa isolate 1529c from fibrosis patient by Etest; type: functional
[3] = system: Pseudomonas aeruginosa; assay: Antimicrobial activity against Pseudomonas aeruginosa isolate 1495c from fibrosis patient by Etest; type: functional
[4] = system: Pseudomonas aeruginosa; assay: Antimicrobial activity against Pseudomonas aeruginosa isolate 1333c from fibrosis patient by Etest; type: functional
[5] = system: Pseudomonas aeruginosa; assay: Antimicrobial activity against Pseudomonas aeruginosa R70 Etest; type: functional
[6] = system: Pseudomonas aeruginosa; assay: Antimicrobial activity against Pseudomonas aeruginosa AHP Etest; type: functional
[7] = system: Pseudomonas aeruginosa; assay: Antimicrobial activity against Pseudomonas aeruginosa isolate 1352c from fibrosis patient by Etest; type: functional
[8] = system: Pseudomonas aeruginosa; assay: microbe, parasite or virus in culture; conditions: isolate 13120
Description: Antimicrobial activity against Pseudomonas aeruginosa isolate 13120 from fibrosis patient by Etest

[9] = system: Pseudomonas aeruginosa; assay: Antimicrobial activity against Pseudomonas aeruginosa isolate 13167 from fibrosis patient by Etest; type: functional
[10] = system: Pseudomonas aeruginosa; assay: Antimicrobial activity against Pseudomonas aeruginosa R20 Etest; type: functional
[11] = system: Pseudomonas aeruginosa; assay: Antimicrobial activity against Pseudomonas aeruginosa Z799/61 by Etest; type: functional
[12] = system: Pseudomonas aeruginosa; assay: Antimicrobial activity against Pseudomonas aeruginosa isolate 1240 from fibrosis patient by Etest; type: functional
[13] = system: Pseudomonas aeruginosa; assay: Antimicrobial activity against Pseudomonas aeruginosa isolate 15107 from fibrosis patient by Etest; type: functional
[14] = system: Pseudomonas aeruginosa; assay: Antimicrobial activity against Pseudomonas aeruginosa isolate 1693c from fibrosis patient by Etest; type: functional
[15] = system: Pseudomonas aeruginosa; assay: Antimicrobial activity against Pseudomonas aeruginosa isolate 3149 from fibrosis patient by Etest; type: functional
[16] = system: Pseudomonas aeruginosa; assay: Antimicrobial activity against Pseudomonas aeruginosa M1251 by Etest
[17] = system: Pseudomonas aeruginosa; assay: microbe, parasite or virus in culture; conditions: 2779-con
Description: Antimicrobial activity against Pseudomonas aeruginosa 2779-con by Etest

[18] = system: Pseudomonas aeruginosa; assay: Antimicrobial activity against Pseudomonas aeruginosa 1405-con D2 by Etest; type: functional
[19] = system: Pseudomonas aeruginosa; assay: Antimicrobial activity against Pseudomonas aeruginosa isolate 16008 from fibrosis patient by Etest; type: functional
[20] = system: Pseudomonas aeruginosa; assay: Antimicrobial activity against Pseudomonas aeruginosa isolate 14169c from fibrosis patient by Etest; type: functional
[21] = system: Pseudomonas aeruginosa; assay: Antimicrobial activity against Pseudomonas aeruginosa isolate 1248c from fibrosis patient by Etest; type: functional
[22] = system: Pseudomonas aeruginosa; assay: Antimicrobial activity against Pseudomonas aeruginosa isolate 1681c from fibrosis patient by Etest; type: functional
[23] = system: Pseudomonas aeruginosa; assay: Antimicrobial activity against Pseudomonas aeruginosa isolate 17112 from fibrosis patient by Etest; type: functional
[24] = system: Pseudomonas aeruginosa; assay: Antimicrobial activity against Pseudomonas aeruginosa isolate 1253 from fibrosis patient by Etest; type: functional
[25] = system: Pseudomonas aeruginosa; assay: Antimicrobial activity against Pseudomonas aeruginosa isolate 1712c from fibrosis patient by Etest; type: functional
[26] = system: Pseudomonas aeruginosa; assay: Antimicrobial activity against Pseudomonas aeruginosa isolate 1247c from fibrosis patient by Etest; type: functional
[27] = system: Pseudomonas aeruginosa; assay: Antimicrobial activity against Pseudomonas aeruginosa isolate 1665 from fibrosis patient by Etest; type: functional
[28] = system: Pseudomonas aeruginosa; assay: Antimicrobial activity against Pseudomonas aeruginosa isolate 12142c from fibrosis patient by Etest; type: functional
[29] = system: Pseudomonas aeruginosa; assay: Antimicrobial activity against Pseudomonas aeruginosa isolate 17145c from fibrosis patient by Etest; type: functional
[30] = system: Pseudomonas aeruginosa; assay: Antimicrobial activity against Pseudomonas aeruginosa isolate 15110c from fibrosis patient by Etest; type: functional
[31] = system: Pseudomonas aeruginosa; assay: Antimicrobial activity against Pseudomonas aeruginosa isolate 12102 from fibrosis patient by Etest; type: functional
[32] = system: Pseudomonas aeruginosa; assay: Antimicrobial activity against Pseudomonas aeruginosa isolate 1726 from fibrosis patient by Etest; type: functional

| SMILES | MIC [1] [mg/L] | MIC [2] [mg/L] | MIC [3] [mg/L] | MIC [4] [mg/L] | MIC [5] [mg/L] | MIC [6] [mg/L] | MIC [7] [mg/L] | MIC [8] [mg/L] | MIC [9] [mg/L] | MIC [11] [mg/L] | MIC [12] [mg/L] | MIC [13] [mg/L] | MIC [14] [mg/L] | MIC [15] [mg/L] | MIC [16] [mg/L] | MIC [17] [mg/L] | MIC [18] [mg/L] | MIC [20] [mg/L] | MIC [21] [mg/L] | MIC [22] [mg/L] | further results |
| --- | --- | --- | --- | --- | --- | --- | --- | --- | --- | --- | --- | --- | --- | --- | --- | --- | --- | --- | --- | --- | --- |
| CC1(C)S[C@@H]2[C@H](NC(=O)C(C(=O)O)c3ccccc3)C(=O)N2[C@H]1C(=O)O (some centres undefined) [CARBENICILLIN] | 64 (≈ 169 µM) | 8 (≈ 21.1 µM) | > 512 | > 512 | > 512 | 32 (≈ 84.6 µM) | 512 (≈ 1350 µM) | 256 (≈ 677 µM) | > 512 | ≤ 16 | 128 (≈ 338 µM) | 128 (≈ 338 µM) | 128 (≈ 338 µM) | > 512 | 512 (≈ 1350 µM) | 128 (≈ 338 µM) | 512 (≈ 1350 µM) | 512 (≈ 1350 µM) | > 512 | 512 (≈ 1350 µM) | MIC [10]: 64 mg/L (≈ 169 µM); MIC [19]: ≤ 16 mg/L; MIC [23]: 512 mg/L (≈ 1350 µM); MIC [24]: 256 mg/L (≈ 677 µM); MIC [25]: > 512 mg/L; MIC [26]: 128 mg/L (≈ 338 µM); MIC [27]: > 512 mg/L; MIC [28]: > 512 mg/L; MIC [29]: ≤ 16 mg/L; MIC [30]: > 512 mg/L; MIC [31]: 256 mg/L (≈ 677 µM); MIC [32]: ≤ 16 mg/L |
| CO/N=C(\C(=O)N[C@@H]1C(=O)N2C(C(=O)O)=C(COC(C)=O)CS[C@H]12)c1csc(N)n1 [CEFOTAXIME] | 32 (≈ 70.3 µM) | 32 (≈ 70.3 µM) | > 256 | > 256 | 256 (≈ 562 µM) | 4 (≈ 8.78 µM) | > 256 | 128 (≈ 281 µM) | > 256 | 0.5 (≈ 1.1 µM) | 256 (≈ 562 µM) | 256 (≈ 562 µM) | 128 (≈ 281 µM) | 64 (≈ 141 µM) | 128 (≈ 281 µM) | > 256 | > 256 | 128 (≈ 281 µM) | > 256 | > 256 | MIC [10]: 4 mg/L (≈ 8.78 µM); MIC [19]: 64 mg/L (≈ 141 µM); MIC [23]: > 256 mg/L; MIC [24]: 128 mg/L (≈ 281 µM); MIC [25]: > 256 mg/L; MIC [26]: 128 mg/L (≈ 281 µM); MIC [27]: > 256 mg/L; MIC [28]: > 256 mg/L; MIC [29]: 128 mg/L (≈ 281 µM); MIC [30]: > 256 mg/L; MIC [31]: 64 mg/L (≈ 141 µM); MIC [32]: 16 mg/L (≈ 35.1 µM) |
| CC(C)(O/N=C(\C(=O)N[C@@H]1C(=O)N2C(C(=O)[O-])=C(C[n+]3ccccc3)CS[C@H]12)c1csc(N)n1)C(=O)O [CEFTAZIDIME] | 4 (≈ 7.32 µM) | 4 (≈ 7.32 µM) | > 256 | 128 (≈ 234 µM) | 8 (≈ 14.6 µM) | 0.5 (≈ 0.915 µM) | 64 (≈ 117 µM) | 4 (≈ 7.32 µM) | 64 (≈ 117 µM) | ≤ 0.12 | 256 (≈ 468 µM) | 8 (≈ 14.6 µM) | 8 (≈ 14.6 µM) | 8 (≈ 14.6 µM) | 4 (≈ 7.32 µM) | 32 (≈ 58.5 µM) | 64 (≈ 117 µM) | 8 (≈ 14.6 µM) | 256 (≈ 468 µM) | 256 (≈ 468 µM) | MIC [23]: 64 mg/L (≈ 117 µM); MIC [24]: 8 mg/L (≈ 14.6 µM); MIC [25]: > 256 mg/L; MIC [26]: 8 mg/L (≈ 14.6 µM); MIC [27]: 256 mg/L (≈ 468 µM); MIC [28]: 256 mg/L (≈ 468 µM); MIC [29]: 64 mg/L (≈ 117 µM); MIC [30]: 256 mg/L (≈ 468 µM); MIC [31]: 4 mg/L (≈ 7.32 µM); MIC [32]: 2 mg/L (≈ 3.66 µM) |
